# Columns and labels:
# WT mice = experiment: In vivo fructose-induced NASH model, wild-type mice; conditions: 0.015 wt % in diet for 5 months
# From the text: Compound 1 was used to alleviate nonalcoholic steatohepatitis (NASH) in wild-type and Cisd2 hKO male mice described above.
# Cisd2 hKO were bred for two generations. […] They were fed 30% (w/v) fructose (Alfa Aesar, Tewksbury, Mass.) in drinking water to establish a fructose-induced NASH model. Groups of mice at 2 months old were provided with a diet (AIN93G, TestDiet, St. Louis, Mo.) containing a vehicle (0.14 wt % of DMF and 0.15 wt % of Cremophor® EL) or Compound 1 (0.015 wt %) for 5 months. The food and drinking water were provided ad libitum.
# Histopathology was used to evaluate the efficacy of Compound 1 in alleviating NASH. Liver tissues were processed and stained as described in Example 3 above.
# An oral glucose tolerance test (GTT) and an insulin tolerance test (ITT) were performed to study beneficial effects of Compound 1 in the fructose-induced glucose intolerance and hepatic insulin resistant mouse model. In the oral glucose tolerance test, mice were fasted for 14 hours (7 p.m. to 9 a.m.) and then were orally administrated with glucose water (1.5 mg/g body weight) using a feeding needle. […] Blood glucose levels were measured using OneTouch® Ultra glucose test strips and SureStep® Meter (LifeScan, Milpitas, Calif.). […] Blood samples were collected and monitored at predetermined time points.
# [1] = test system: Cisd2 promoter with firefly luciferase reporter (HEK293-CISD2); experiment: Cisd2-luciferase reporter assay; assay type: cell-based; conditions: Homo sapiens; HEK293-CISD2 cells, 24 h incubation, luciferase activity
# Protocol: Compounds 1-35 were tested for increasing the level of Cisd2 in human embryonic kidney cells 293 (HEK293), a transfected cell line expressing Cisd2, using the Cisd2-luciferase reporter assay as described below.
# The transfected HEK293 cells stably expressed Cisd2 promoter with firefly luciferase reporter (“HEK293-CISD2”). They were kept in Dulbecco's modified Eagle's medium (“DMEM”) (Gibco, New York, N.Y.). Culture medium was supplemented with 10% heat-inactivated fetal bovine serum (“FBS”), 2 mM L-Glutamine, 1 mM sodium pyruvate, 0.1% MEM Non-Essential Amino Acids, 1 μg/ml puromycin and 1% penicillin/streptomycin (HyClone, Logan, Utah). The cells were maintained at 37° C. in an incubator (Thermo Fisher Scientific, Waltham, Mass.) with an atmosphere of 5% CO2. The stably transfected cells were seeded in 384-well plates at a density of 3×10^3 cells/well. After incubation with a tested compound at 37° C. for 24 h, ONE-Glo™ Luciferase Assay System (Promega, Madison, Wis.) was added at room temperature for 10 minutes to detect any luciferase activity. Luminescence intensity was registered using plate reader BioTek Synergy Neo2™ (Agilent, Santa Clara, Calif.).
# EC50 values in this table are presented in […] classes, i.e., A: <1 μM and B: 1 μM-10 μM.
# Cisd2 hKO-het mice = experiment: In vivo study for treating nonalcoholic fatty liver disease (NAFLD); conditions: 0.015 wt % in diet for 4 weeks
# Protocol: Compound 1 was evaluated for its anti-nonalcoholic fatty liver disease (“NAFLD”) effect and in vivo toxicity following an assay described below.
# Cisd2 floxed allele (Cisd2 f/f) mice were prepared following a procedure described in Wang et al., Hum. Mol. Genet.23, 4770-85 (2014). To obtain Cisd2 heterozygous hepatocyte-specific knockout (Cisd2 hKO-het, Cisd2 f/+; Alb-Cre Tg), Cisd2 f/f mice were bred with Albumin-Cre transgenic (Alb-Cre Tg, JAX003574) mice. After one generation, Cisd2 hKO-het mice were obtained. Male mice were chosen to be used in this study. All mice have a pure or congenic C57BL/6 background and were bred/housed in a specific pathogen-free facility with a 12 h light/12 h dark cycle at a temperature of 20-22° C. Groups of mice at 8 weeks old were provided a diet (AIN93G, TestDiet) containing a vehicle (0.14 wt % of DMF and 0.15 wt % of Cremophor® EL) or compound 1 (0.015 wt %) for 4 weeks.
# Histopathology was used to evaluate the efficacy of Compound 1 in ameliorating NAFLD. Liver tissues were collected and fixed with 10% neutral buffered formalin at 4° C. overnight. They were then processed in a tissue processor (STP120, Microm, Thermo Fisher Scientific Inc., Waltham, Mass.), followed by embedding in paraffin. H&E of tissue sections (3-4 μm) were carried out by a standard protocol. […]
compound,measurement,setting,value
"COC(=O)c1c(N)sc(C(=O)Nc2ccc(C)cc2C)c1C [Compound 1, Methyl 2-amino-5-[(2,4-dimethylphenyl)carbamoyl]-4-methylthiophene carboxylate]",toxicity,WT mice,without obvious toxicity
same,Cisd2 protein level,"WT mice; 30% fructose in drinking water, control group 0.4",0.8
same,EC50,[1],< 1 µM
same,"liver and kidney toxicity (serum ALT, AST, BUN, CRE)",Cisd2 hKO-het mice,without detectable liver and kidney toxicity
same,expression level of Cisd2 protein,"Cisd2 hKO-het mice; Cisd2+/- mice, control group 0.43",0.7
